Results: the supplement of paper PMC7017272
± gives the standard deviation of the averaged measurements.

Legend:
Conditions in all cases: treatment time: 3 days
UT-SCC-24A [1] = assay: maximal % inhibition of viability relative to DMSO; higher = stronger effect
Method: (§1)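 HNSCC cell lines (500 cells/well, 384-well) were cultured on plastic, on top of (2D) or embedded (3D) in Matrigel or human leiomyoma matrix Myogel (500 ug/mL; Myogel 3D mixed with rat collagen I). Cells were treated for 3 days with 5 ten-fold concentrations of each drug, and viability was read by CellTiter-Glo. Viability was normalised to DMSO (0% inhibition) and 100 uM benzethonium chloride (100% inhibition) controls and fitted with the FIMM DSRT pipeline to give IC50 (nM), maximal % inhibition and the drug sensitivity score (DSS). Suffixes _1/_2/_3 on drug names are replicates.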

UT-SCC-106A = assay: drug sensitivity score (DSS); higher = more sensitive; extreme values may be limits of the assay
In short: (§2)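 The FIMM pipeline was used to fit percent-inhibition dose–response curves, giving IC50, maximal inhibition and drug sensitivity score. Input data were CellTiter-Glo 2.0 luminescence readings, normalised to vehicle (0.1% DMSO) and cell-killing control wells, from HPV-negative HNSCC cell lines seeded at 500 cells/well in 384-well plates. Cells sat on plastic, on Matrigel or Myogel coatings (500 µg/mL), or within Matrigel or Myogel plus rat collagen I, and received compounds at five 10-fold concentrations for 3 days.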

UT-SCC-14 = assay: as above
In short: as §2

UT-SCC-24B = assay: as above
In short: as §2

UT-SCC-28 [2] = assay: as above
In short: as §2

UT-SCC-40 = assay: as above
In short: as §2

UT-SCC-42A [3] = assay: as above
In short: as §2

UT-SCC-42B = assay: as above
In short: as §2

UT-SCC-44 = assay: as above
In short: as §2

UT-SCC-73 = assay: as above
In short: as §2

UT-SCC-81 [4] = assay: as above
In short: as §2

UT-SCC-8 = assay: as above
In short: as §2

UT-SCC-28 [5] = assay: relative IC50 (midpoint of the fitted curve; maximal inhibition may be below 50%); higher = less potent
In short: as §2

UT-SCC-42A [6] = assay: as above
In short: as §2

UT-SCC-81 [7] = assay: as above
In short: as §2

UT-SCC-24A [8] = assay: relative IC50 (midpoint of the fitted curve; maximal inhibition may be below 50%); higher = less potent
Method: as §1

[9] = culture condition: embedded in Matrigel
[10] = culture condition: embedded in Myogel + collagen I
[11] = culture condition: on top of Matrigel
[12] = culture condition: on top of Myogel
[13] = culture condition: plastic 2D (no matrix)

- relative IC50 (UT-SCC-28 [5]; [9]): > 989 nM
- relative IC50 (UT-SCC-28 [5]; [10]): > 989 nM
- relative IC50 (UT-SCC-42A [6]; [9]): 28.9 nM
- relative IC50 (UT-SCC-42A [6]; [11]): 11.4 nM
- relative IC50 (UT-SCC-42A [6]; [12]): 21.2 nM
- relative IC50 (UT-SCC-42A [6]; [13]): 19 nM
- relative IC50 (UT-SCC-81 [7]; [9]): 6.81 nM
- relative IC50 (UT-SCC-81 [7]; [11]): 15.3 nM
- relative IC50 (UT-SCC-81 [7]; [13]): 35.7 nM
- relative IC50 (UT-SCC-24A [8]; [9]): 8.03 nM
- relative IC50 (UT-SCC-24A [8]; [11]): 9.88 nM
- relative IC50 (UT-SCC-24A [8]; [13]): 12.8 nM
SMILES: CN(C)C/C=C/C(=O)Nc1cc2c(Nc3ccc(F)c(Cl)c3)ncnc2cc1O[C@H]1CCOC1 [Afatinib]
- maximal % inhibition of viability (UT-SCC-24A [1]; [9]): 79.9 ± 1.1%
- maximal % inhibition of viability (UT-SCC-24A [1]; [10]): 38.8 ± 2.3%
- maximal % inhibition of viability (UT-SCC-24A [1]; [11]): 68.23 ± 0.59%
- maximal % inhibition of viability (UT-SCC-24A [1]; [12]): 20.3 ± 3.7%
- maximal % inhibition of viability (UT-SCC-24A [1]; [13]): 67.1 ± 4%
- drug sensitivity score (UT-SCC-106A; [9]): 10.9 ± 1.4 DSS
- drug sensitivity score (UT-SCC-106A; [10]): 0 DSS
- drug sensitivity score (UT-SCC-106A; [11]): 13.7 ± 2.2 DSS
- drug sensitivity score (UT-SCC-106A; [12]): 0.133 ± 0.23 DSS
- drug sensitivity score (UT-SCC-106A; [13]): 13.7 ± 1.7 DSS
- drug sensitivity score (UT-SCC-14; [9]): 13.8 ± 3 DSS
- drug sensitivity score (UT-SCC-14; [10]): 9.3 ± 6.4 DSS
- drug sensitivity score (UT-SCC-14; [11]): 12.5 ± 1.4 DSS
- drug sensitivity score (UT-SCC-14; [12]): 7.33 ± 3.8 DSS
- drug sensitivity score (UT-SCC-14; [13]): 12.1 ± 4.1 DSS
- drug sensitivity score (UT-SCC-24B; [9]): 11.4 ± 0.72 DSS
- drug sensitivity score (UT-SCC-24B; [10]): 4.57 ± 0.58 DSS
- drug sensitivity score (UT-SCC-24B; [11]): 10.9 ± 0.96 DSS
- drug sensitivity score (UT-SCC-24B; [12]): 2.3 ± 0.7 DSS
- drug sensitivity score (UT-SCC-24B; [13]): 16.1 ± 0.56 DSS
- drug sensitivity score (UT-SCC-28 [2]; [9]): 0 DSS
- drug sensitivity score (UT-SCC-28 [2]; [10]): 0 DSS
- drug sensitivity score (UT-SCC-28 [2]; [11]): 0.233 ± 0.32 DSS
- drug sensitivity score (UT-SCC-28 [2]; [13]): 0 DSS
- drug sensitivity score (UT-SCC-40; [9]): 16 ± 1.1 DSS
- drug sensitivity score (UT-SCC-40; [10]): 2.93 ± 3.1 DSS
- drug sensitivity score (UT-SCC-40; [11]): 14.5 ± 1.1 DSS
- drug sensitivity score (UT-SCC-40; [12]): 3.37 ± 1.5 DSS
- drug sensitivity score (UT-SCC-40; [13]): 10.2 ± 1.3 DSS
- drug sensitivity score (UT-SCC-42A [3]; [9]): 9.73 ± 3.1 DSS
- drug sensitivity score (UT-SCC-42A [3]; [10]): 0.767 ± 1.3 DSS
- drug sensitivity score (UT-SCC-42A [3]; [11]): 12.7 ± 1.4 DSS
- drug sensitivity score (UT-SCC-42A [3]; [12]): 4.33 ± 1.3 DSS
- drug sensitivity score (UT-SCC-42A [3]; [13]): 10.3 ± 2.3 DSS
- drug sensitivity score (UT-SCC-42B; [9]): 15.7 ± 1.7 DSS
- drug sensitivity score (UT-SCC-42B; [11]): 11.6 ± 1.6 DSS
- drug sensitivity score (UT-SCC-42B; [12]): 0 DSS
- drug sensitivity score (UT-SCC-42B; [13]): 6.6 ± 0.72 DSS
- drug sensitivity score (UT-SCC-44; [9]): 0.233 ± 0.4 DSS
- drug sensitivity score (UT-SCC-44; [10]): 0 DSS
- drug sensitivity score (UT-SCC-44; [11]): 0 DSS
- drug sensitivity score (UT-SCC-44; [12]): 0 DSS
- drug sensitivity score (UT-SCC-44; [13]): 0 DSS
- drug sensitivity score (UT-SCC-73; [9]): 2.43 ± 1.8 DSS
- drug sensitivity score (UT-SCC-73; [10]): 3.1 ± 5.4 DSS
- drug sensitivity score (UT-SCC-73; [11]): 0 DSS
- drug sensitivity score (UT-SCC-73; [12]): 0.433 ± 0.75 DSS
- drug sensitivity score (UT-SCC-73; [13]): 1.47 ± 1.2 DSS
- drug sensitivity score (UT-SCC-81 [4]; [9]): 23 ± 2.7 DSS
- drug sensitivity score (UT-SCC-81 [4]; [10]): 6.47 ± 11 DSS
- drug sensitivity score (UT-SCC-81 [4]; [11]): 18.5 ± 2.3 DSS
- drug sensitivity score (UT-SCC-81 [4]; [12]): 1.6 ± 0.66 DSS
- drug sensitivity score (UT-SCC-81 [4]; [13]): 12.5 ± 1.2 DSS
- drug sensitivity score (UT-SCC-8; [9]): 19.8 ± 0.42 DSS
- drug sensitivity score (UT-SCC-8; [10]): 0.333 ± 0.58 DSS
- drug sensitivity score (UT-SCC-8; [11]): 19 ± 0.44 DSS
- drug sensitivity score (UT-SCC-8; [12]): 8.37 ± 4.4 DSS
- drug sensitivity score (UT-SCC-8; [13]): 18 ± 1.5 DSS
